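Values below derive from 48-hour exposures of cells grown in 96-well plates, with endpoints linearly interpolated between the two concentrations bracketing the appropriate inhibition level. The concentration for 50% growth inhibition is given as GI50.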 Active and inactive are the calls of the source. Cut-off read from the data, not from the text of the source: active = GI50 up to about 1.1 µM and inactive = higher.
Legend:
Experiment in all cases: NCI-60 cell line screen, 48 h
786-0 = test system: 786-0
A498 = test system: A498
A549 = test system: A549
ACHN = test system: ACHN
BT-549 = test system: BT-549
CAKI-1 = test system: CAKI-1
CCRF-CEM = test system: CCRF-CEM
COLO 205 = test system: COLO 205
DU-145 = test system: DU-145
EKVX = test system: EKVX
HCC 2998 = test system: HCC 2998
HCT-116 = test system: HCT-116
HCT-15 = test system: HCT-15
HL-60 = test system: HL-60
HOP-62 = test system: HOP-62
HOP-92 = test system: HOP-92
HT-29 = test system: HT-29
Hs-578T = test system: Hs-578T
IGROV-1 = test system: IGROV-1
K562 = test system: K562
KM12 = test system: KM12
LOX IMVI = test system: LOX IMVI
M14 = test system: M14
MCF7 = test system: MCF7
MDA-MB-231 = test system: MDA-MB-231
MDA-MB-435 = test system: MDA-MB-435
MDA-N = test system: MDA-N
MOLT-4 = test system: MOLT-4
Malme-3M = test system: Malme-3M
NCI-H226 = test system: NCI-H226
NCI-H23 = test system: NCI-H23
NCI-H460 = test system: NCI-H460
NCI-H522 = test system: NCI-H522
NCI/ADR-RES = test system: NCI/ADR-RES
OVCAR-3 = test system: OVCAR-3
OVCAR-4 = test system: OVCAR-4
OVCAR-5 = test system: OVCAR-5
OVCAR-8 = test system: OVCAR-8
PC-3 = test system: PC-3
RPMI-8226 = test system: RPMI-8226
RXF 393 = test system: RXF 393
SF-268 = test system: SF-268
SF-295 = test system: SF-295
SF-539 = test system: SF-539
SK-MEL-28 = test system: SK-MEL-28
SK-MEL-2 = test system: SK-MEL-2
SK-MEL-5 = test system: SK-MEL-5
SK-OV-3 = test system: SK-OV-3
SN12C = test system: SN12C
SNB-19 = test system: SNB-19
SNB-75 = test system: SNB-75
SR = test system: SR
SW-620 = test system: SW-620
T47D = test system: T47D
TK-10 = test system: TK-10
U-251 = test system: U-251
UACC-257 = test system: UACC-257
UACC-62 = test system: UACC-62
UO-31 = test system: UO-31

For `COCOC1/C=C/CCCCC(=O)C(C)C#CC1` (configuration not stated), the GI50 (786-0) was 2.09 µM (inactive), the GI50 (A498) was 10.7 µM (inactive) and the GI50 (A549) was 12.9 µM (inactive). The GI50 (ACHN) was 6.67 µM (inactive), the GI50 (BT-549) was 6.97 µM (inactive) and the GI50 (CAKI-1) was 5.09 µM (inactive). The GI50 (CCRF-CEM) was 1.87 µM (inactive), the GI50 (COLO 205) was 2.51 µM (inactive) and the GI50 (DU-145) was 12.8 µM (inactive). For the same compound, the GI50 (EKVX) was 9.86 µM (inactive), the GI50 (HCC 2998) was 7.89 µM (inactive) and the GI50 (HCT-116) was 1.86 µM (inactive). For the same compound, the GI50 (HCT-15) was 2.36 µM, the GI50 (HL-60) was 1.71 µM (inactive) and the GI50 (HOP-62) was 17.5 µM (inactive). For the same compound, the GI50 (HOP-92) was 3.1 µM (inactive), the GI50 (HT-29) was 3.37 µM (inactive) and the GI50 (Hs-578T) was 20.3 µM (inactive). The GI50 (IGROV-1) was 3.65 µM (inactive), the GI50 (K562) was 2.97 µM (inactive) and the GI50 (KM12) was 7.4 µM (inactive). For the same compound, the GI50 (LOX IMVI) was 2.19 µM (inactive), the GI50 (M14) was 3.72 µM (inactive) and the GI50 (MCF7) was 3.89 µM (inactive). For the same compound, the GI50 (MDA-MB-231) was 4.73 µM (inactive), the GI50 (MDA-MB-435) was 5.52 µM (inactive) and the GI50 (MDA-N) was 11.5 µM (inactive). For the same compound, the GI50 (MOLT-4) was 2.09 µM (inactive), the GI50 (Malme-3M) was 1.98 µM (inactive) and the GI50 (NCI-H226) was 17.2 µM (inactive). For the same compound, the GI50 (NCI-H23) was 4.63 µM (inactive), the GI50 (NCI-H460) was 7.13 µM (inactive) and the GI50 (NCI-H522) was 1.53 µM (inactive). For the same compound, the GI50 (NCI/ADR-RES) was 4.18 µM (inactive), the GI50 (OVCAR-3) was 4.13 µM (inactive) and the GI50 (OVCAR-4) was 10.2 µM (inactive). The GI50 (OVCAR-5) was 12.8 µM (inactive), the GI50 (OVCAR-8) was 4.18 µM (inactive) and the GI50 (PC-3) was 11.4 µM (inactive). For the same compound, the GI50 (RPMI-8226) was 1.46 µM (inactive), the GI50 (RXF 393) was 3.06 µM (inactive) and the GI50 (SF-268) was 15.1 µM (inactive). The GI50 (SF-295) was 16.6 µM (inactive), the GI50 (SF-539) was 5.7 µM (inactive) and the GI50 (SK-MEL-28) was 12.4 µM (inactive). The GI50 (SK-MEL-2) was 5.81 µM (inactive), the GI50 (SK-MEL-5) was 8.87 µM (inactive) and the GI50 (SK-OV-3) was 15.8 µM (inactive). For the same compound, the GI50 (SN12C) was 6.27 µM (inactive), the GI50 (SNB-19) was 17.8 µM (inactive) and the GI50 (SNB-75) was 12.9 µM (inactive). The GI50 (SR) was 2.74 µM (inactive), the GI50 (SW-620) was 1.89 µM (inactive) and the GI50 (T47D) was 2.76 µM (inactive). For the same compound, the GI50 (TK-10) was 8 µM (inactive), the GI50 (U-251) was 14.4 µM (inactive) and the GI50 (UACC-257) was 5.65 µM (inactive). The GI50 (UACC-62) was 2.4 µM (inactive) and the GI50 (UO-31) was 5.7 µM (inactive).
`C[C@]12CC[C@H](O)CC1=CC[C@@H]1[C@@H]2CC[C@]2(C)c3nc(Cl)ccc3C[C@@H]12` was tested, and the GI50 (786-0) was 30.1 µM (inactive), the GI50 (A498) was > 100 µM (inactive) and the GI50 (A549) was 25 µM (inactive). For the same compound, the GI50 (ACHN) was 15.6 µM (inactive), the GI50 (BT-549) was 26.1 µM (inactive) and the GI50 (CAKI-1) was > 100 µM (inactive). For the same compound, the GI50 (CCRF-CEM) was 8.17 µM (inactive), the GI50 (COLO 205) was > 100 µM (inactive) and the GI50 (DU-145) was > 100 µM (inactive). The GI50 (EKVX) was 11.4 µM (inactive), the GI50 (HCC 2998) was > 58.1 µM (inactive) and the GI50 (HCT-116) was 47 µM (inactive). For the same compound, the GI50 (HCT-15) was 9.46 µM, the GI50 (HL-60) was 40.1 µM (inactive) and the GI50 (HOP-62) was 30.7 µM (inactive). The GI50 (HOP-92) was > 100 µM (inactive), the GI50 (HT-29) was 10.9 µM (inactive) and the GI50 (Hs-578T) was 35.2 µM (inactive). For the same compound, the GI50 (IGROV-1) was 61.5 µM (inactive), the GI50 (K562) was 5.78 µM (inactive) and the GI50 (KM12) was 22.2 µM (inactive). For the same compound, the GI50 (LOX IMVI) was 57.1 µM (inactive), the GI50 (M14) was > 59.4 µM (inactive) and the GI50 (MCF7) was > 64.7 µM (inactive). For the same compound, the GI50 (MDA-MB-231) was > 94.6 µM (inactive), the GI50 (MDA-MB-435) was 6.76 µM (inactive) and the GI50 (MDA-N) was 12.2 µM (inactive). The GI50 (MOLT-4) was 8.45 µM (inactive), the GI50 (Malme-3M) was 53 µM (inactive) and the GI50 (NCI-H226) was > 100 µM (inactive). The GI50 (NCI-H23) was 24.6 µM (inactive), the GI50 (NCI-H460) was 28.1 µM (inactive) and the GI50 (NCI-H522) was 49.8 µM (inactive). The GI50 (NCI/ADR-RES) was 29.5 µM (inactive), the GI50 (OVCAR-3) was 27.3 µM (inactive) and the GI50 (OVCAR-4) was > 53.7 µM (inactive). The GI50 (OVCAR-5) was > 80.9 µM (inactive), the GI50 (OVCAR-8) was 62.5 µM (inactive) and the GI50 (PC-3) was 74.3 µM (inactive). The GI50 (RPMI-8226) was 39.4 µM (inactive), the GI50 (RXF 393) was 37.9 µM (inactive) and the GI50 (SF-268) was 26.7 µM (inactive). The GI50 (SF-295) was 28.2 µM (inactive), the GI50 (SF-539) was 14.9 µM (inactive) and the GI50 (SK-MEL-28) was > 64.1 µM (inactive). The GI50 (SK-MEL-2) was > 100 µM (inactive), the GI50 (SK-MEL-5) was > 46.2 µM (inactive) and the GI50 (SK-OV-3) was 42.7 µM (inactive). For the same compound, the GI50 (SN12C) was 44.8 µM (inactive), the GI50 (SNB-19) was 36.1 µM (inactive) and the GI50 (SNB-75) was 25 µM (inactive). The GI50 (SR) was 11.4 µM (inactive), the GI50 (SW-620) was > 42.3 µM (inactive) and the GI50 (T47D) was > 63.4 µM (inactive). For the same compound, the GI50 (TK-10) was > 56.8 µM (inactive), the GI50 (U-251) was 31 µM (inactive) and the GI50 (UACC-257) was > 100 µM (inactive). For the same compound, the GI50 (UACC-62) was 11.5 µM (inactive) and the GI50 (UO-31) was 7.52 µM (inactive).
In the case of `OCCSCc1ccccc1`, the GI50 (786-0) was > 100 µM (inactive), the GI50 (A498) was > 100 µM (inactive) and the GI50 (A549) was > 100 µM (inactive). The GI50 (ACHN) was > 100 µM (inactive), the GI50 (BT-549) was > 100 µM (inactive) and the GI50 (CAKI-1) was > 100 µM (inactive). The GI50 (CCRF-CEM) was > 100 µM (inactive), the GI50 (COLO 205) was > 100 µM (inactive) and the GI50 (DU-145) was > 100 µM (inactive). The GI50 (EKVX) was > 100 µM (inactive), the GI50 (HCC 2998) was > 100 µM (inactive) and the GI50 (HCT-116) was > 100 µM (inactive). The GI50 (HCT-15) was over 100 µM, the GI50 (HL-60) was > 100 µM (inactive) and the GI50 (HOP-62) was > 100 µM (inactive). For the same compound, the GI50 (HOP-92) was > 100 µM (inactive), the GI50 (HT-29) was > 100 µM (inactive) and the GI50 (Hs-578T) was > 100 µM (inactive). For the same compound, the GI50 (IGROV-1) was > 100 µM (inactive), the GI50 (K562) was > 100 µM (inactive) and the GI50 (KM12) was > 100 µM (inactive). The GI50 (LOX IMVI) was > 100 µM (inactive), the GI50 (M14) was > 100 µM (inactive) and the GI50 (MCF7) was > 100 µM (inactive). For the same compound, the GI50 (MDA-MB-231) was > 100 µM (inactive), the GI50 (MDA-MB-435) was > 100 µM (inactive) and the GI50 (MDA-N) was > 100 µM (inactive). For the same compound, the GI50 (MOLT-4) was > 100 µM (inactive), the GI50 (Malme-3M) was > 100 µM (inactive) and the GI50 (NCI-H226) was > 100 µM (inactive). The GI50 (NCI-H23) was > 100 µM (inactive), the GI50 (NCI-H460) was > 100 µM (inactive) and the GI50 (NCI-H522) was > 100 µM (inactive). For the same compound, the GI50 (NCI/ADR-RES) was > 100 µM (inactive), the GI50 (OVCAR-3) was > 100 µM (inactive) and the GI50 (OVCAR-4) was > 100 µM (inactive). The GI50 (OVCAR-5) was > 100 µM (inactive), the GI50 (OVCAR-8) was > 100 µM (inactive) and the GI50 (PC-3) was > 100 µM (inactive). The GI50 (RPMI-8226) was > 100 µM (inactive), the GI50 (RXF 393) was > 100 µM (inactive) and the GI50 (SF-268) was > 100 µM (inactive). The GI50 (SF-295) was > 100 µM (inactive), the GI50 (SF-539) was > 100 µM (inactive) and the GI50 (SK-MEL-28) was > 100 µM (inactive). The GI50 (SK-MEL-2) was > 100 µM (inactive), the GI50 (SK-MEL-5) was > 100 µM (inactive) and the GI50 (SK-OV-3) was > 100 µM (inactive). For the same compound, the GI50 (SN12C) was > 100 µM (inactive), the GI50 (SNB-19) was > 100 µM (inactive) and the GI50 (SNB-75) was > 100 µM (inactive). The GI50 (SR) was > 100 µM (inactive), the GI50 (SW-620) was > 100 µM (inactive) and the GI50 (T47D) was > 100 µM (inactive). The GI50 (TK-10) was > 100 µM (inactive), the GI50 (U-251) was > 100 µM (inactive) and the GI50 (UACC-257) was > 100 µM (inactive). The GI50 (UACC-62) was > 100 µM (inactive) and the GI50 (UO-31) was > 100 µM (inactive).

Reference: ChEMBL document CHEMBL1201862, “PubChem BioAssay data set” (2004)
